Measured values as given in patent US20020051978A1, “Methods and compositions for the identification, assessment, prevention and therapy of human cancers” (priority 2000, published 2002).
“And” between values parts separate entries of the source, which are not always exact repeats. Identical values can stand only once. Like-named read-outs stand apart in the source and are kept apart here.

Tested on: 60 cancer cell lines (NCI 60 cancer cell line series)
Test: NCI-DTP in vitro cancer screen, sulforhodamine B (SRB) growth inhibition, 48 hour exposure
Assay type: cell-based, human
Procedure: Cancer Cell Line Preparation. Sixty cancer cell lines were obtained from the National Cancer Institute Developmental Therapeutics Program (NCI-DTP). Procedures for growing cells and testing compounds have been described previously (Scudiero et al., Cancer Res. 1988, 48:4827-4833; Stinson et al., Anticancer Res.; Myers et al., Electrophoresis 1997, 18:647-653). Cells are plated on day 0 at a density individualized for each cell line so that they will generally be sub-confluent at the end of the assay period. On day 1, a compound is added in the format for a duplicate-well, 5-dose, ten-fold interval dose response study.
No-drug, no-cell and no-growth controls are included. On day 3 the cells are processed for staining with sulforhodamine B (SRB), which reflects the amount of cell mass present at the end of a 48 hour exposure to the test agent. From dose response curves based on the SRB data, various parameters can be determined. The one used in the present study is the G15o, defined as the concentration of compound required to inhibit growth of the cell line by 50%. More precisely, the quantity used in the calculation to be described is the potency measure -log{GI50}.
Activity database (A). Table IA, consisting of the growth inhibition (GI5o) values for the 60 cell lines and 24 compounds, was created from the NCI-DTP in vitro cancer screen database. This subset of compounds was selected from the larger 23,000 compound database available from the DTP. The compounds were selected on the basis of their known mechanism of action and chemical structure. The average potency—log{GI50} was extracted from the comma-delimited text files available through the Web at http://www.nci.nih.gov/intra/lmp/jnwbio.htmrl. Subsequently, these log{GI5o} values were inspected manually and classified as indicating either Low, Medium or High sensitivity to each compound.

Carboplatin
3: classification of cell line as Low(1), Medium(2) or High(3) sensitivity to compound (CNS SF-268 CL12014) | classification of cell line as Low(1), Medium(2) or High(3) sensitivity to compound (CNS SF-295 CL12015) | classification of cell line as Low(1), Medium(2) or High(3) sensitivity to compound (Leukemia HL-60(I) (CL7008)) | sensitivity class NSCLC NCI-H23(I) CL1001 (cell line NSCLC NCI-H23(I), CL1001) | sensitivity class NSCLC NCI-H460 CL1021 (cell line NSCLC NCI-H460, CL1021) | sensitivity class NSCLC NCI-H522 CL1003 (cell line NSCLC NCI-H522, CL1003) | sensitivity class Ovarian IGROV1 CL6010 (cell line Ovarian IGROV1, CL6010)
2: classification of cell line as Low(1), Medium(2) or High(3) sensitivity to compound (Breast BT-549 (CL5013)) | classification of cell line as Low(1), Medium(2) or High(3) sensitivity to compound (Breast HS-578T CL5006) | classification of cell line as Low(1), Medium(2) or High(3) sensitivity to compound (Breast MCF7(I) (CL5001)) | classification of cell line as Low(1), Medium(2) or High(3) sensitivity to compound (Breast MCF7/ADRr (CL5002)) | classification of cell line as Low(1), Medium(2) or High(3) sensitivity to compound (Breast MDA-N CL5012) | classification of cell line as Low(1), Medium(2) or High(3) sensitivity to compound (CNS SF-539 CL12016) | classification of cell line as Low(1), Medium(2) or High(3) sensitivity to compound (CNS SNB-19 (CL12002)) | classification of cell line as Low(1), Medium(2) or High(3) sensitivity to compound (CNS SNB-75(I) CL12005) | classification of cell line as Low(1), Medium(2) or High(3) sensitivity to compound (CNS U251(I) CL12009) | classification of cell line as Low(1), Medium(2) or High(3) sensitivity to compound (Colon HCT-116 (CL4003)) | classification of cell line as Low(1), Medium(2) or High(3) sensitivity to compound (Colon SW-620 (CL4009)) | classification of cell line as Low(1), Medium(2) or High(3) sensitivity to compound (Leukemia CCRF-CEM(I) (CL7003)) | classification of cell line as Low(1), Medium(2) or High(3) sensitivity to compound (Leukemia K562(I) CL7005) | classification of cell line as Low(1), Medium(2) or High(3) sensitivity to compound (Leukemia MOLT-4 (CL7006)) | classification of cell line as Low(1), Medium(2) or High(3) sensitivity to compound (Leukemia RPMI-8226(I) (CL7010)) | classification of cell line as Low(1), Medium(2) or High(3) sensitivity to compound (Leukemia SR CL7019) | classification of cell line as Low(1), Medium(2) or High(3) sensitivity to compound (Melanoma LOX IMVI CL10001) | classification of cell line as Low(1), Medium(2) or High(3) sensitivity to compound (Melanoma M14 (CL10014)) | classification of cell line as Low(1), Medium(2) or High(3) sensitivity to compound (Melanoma MALME-3M CL10002) | sensitivity class Ovarian OVCAR-3 CL6001 (cell line Ovarian OVCAR-3, CL6001) | sensitivity class Ovarian OVCAR-4 CL6002 (cell line Ovarian OVCAR-4, CL6002) | sensitivity class Ovarian OVCAR-8 CL6005 (cell line Ovarian OVCAR-8, CL6005) | sensitivity class Ovarian SK-OV-3 CL6011 (cell line Ovarian SK-OV-3, CL6011) | sensitivity class Prostate DU-145 CL11003 (cell line Prostate DU-145, CL11003) | sensitivity class Renal 786-O CL9018 (cell line Renal 786-O, CL9018) | sensitivity class Renal ACHN CL9023 (cell line Renal ACHN, CL9023) | sensitivity class Renal CAKI-1 CL9015 (cell line Renal CAKI-1, CL9015) | sensitivity class Renal RXF-393 CL9016 (cell line Renal RXF-393, CL9016) | sensitivity class Renal SN12C CL9008 (cell line Renal SN12C, CL9008) | sensitivity class Renal UO-31 CL9004 (cell line Renal UO-31, CL9004)
14: 1 # of Low (number of the 60 cell lines classified Low (1) sensitivity)
8: 3 # of High (number of the 60 cell lines classified High (3) sensitivity)
38: 2 # of Medium (number of the 60 cell lines classified Medium (2) sensitivity)
1: classification of cell line as Low(1), Medium(2) or High(3) sensitivity to compound (Breast MDA-MB-231 CL5005) | classification of cell line as Low(1), Medium(2) or High(3) sensitivity to compound (Breast MDA-MB-435 (CL5011)) | classification of cell line as Low(1), Medium(2) or High(3) sensitivity to compound (Breast T-47D (CL5014)) | classification of cell line as Low(1), Medium(2) or High(3) sensitivity to compound (Colon COLO-250 CL4010) | classification of cell line as Low(1), Medium(2) or High(3) sensitivity to compound (Colon HCC-2998 (CL4002)) | classification of cell line as Low(1), Medium(2) or High(3) sensitivity to compound (Colon HCT-15 CL4015) | classification of cell line as Low(1), Medium(2) or High(3) sensitivity to compound (Colon HT29(I) CL4001) | classification of cell line as Low(1), Medium(2) or High(3) sensitivity to compound (Colon KM12 (CL4017)) | sensitivity class NSCLC NCI-H332M CL1017 (cell line NSCLC NCI-H332M, CL1017) | sensitivity class Ovarian OVCAR-5 CL6003 (cell line Ovarian OVCAR-5, CL6003) | sensitivity class Prostate PC-3(I) CL11001 (cell line Prostate PC-3(I), CL11001) | sensitivity class Renal A498 CL9013 (cell line Renal A498, CL9013) | sensitivity class Renal TK10 CL9024 (cell line Renal TK10, CL9024)

CC[C@]1(O)C[C@@H]2CN(CCc3c([nH]c4ccccc34)[C@@](C(=O)OC)(c3cc4c(cc3OC)N(C)[C@H]3[C@@](O)(C(=O)OC)[C@H](OC(C)=O)[C@]5(CC)C=CCN6CC[C@]43[C@@H]65)C2)C1.O=S(=O)(O)O [Vinbiastine sulfate]
2 and 3 and 1: classification of cell line as Low(1), Medium(2) or High(3) sensitivity to compound
